Experimental data: US11407768B2, “AMPK activators” (Kallyope, Inc., priority 2020, dated 2022)
Where a name gives a salt, the structure may show the parent alone.

Experiments:
[1] = target: Recombinant AMPK α1/β1/γ1 complex (Homo sapiens (Human), UniProt Q13131+Q9Y478); test: In vitro pAMPK1 kinase activation assay (ADP-Glo, SAMS peptide); type: biochemical; details: AMPK α1/β1/γ1 pre-activated with CAMKK2; 12-point curve; 15 min compound incubation
Method: Compound effect on AMPK enzyme activation was determined in a cell-free format with a 12-point concentration curve. The ADP-Glo detection system was used to determine phosphorylation of a SAMS peptide substrate. Recombinant AMPK α1/β1/γ1 complex was pre-activated by phosphorylation with CAMKK2 followed by incubated with compound for 15 minutes prior to the SAMS phosphorylation reaction. Activity curves and EC50 values were fitted by interpolation to an ATP:ADP standard curve as indicated by the ADP-Glo manufacturer using Prism software.

[2] = Pharmacokinetics (oral bioavailability) in C57BL/6 mice; details: mouse, in vivo; for bioavailability: IV 1 mg/kg, PO 30 mg/kg; for Vd: following IV administration, 1 mg/kg, read-out: volume of distribution
Method: Selected compounds were tested for pharmacokinetics in C57BL/6 mice. Compounds 1, 4, 31, 32, 40, 55, 57 and 60 were dosed IV at 1 mg/kg as a formulation of 0.2 mg/mL in 5% DMSO+30% PEG400+65% water and were dosed PO at 30 mg/kg as a formulation of 3 mg/mL in 0.25% MC+5% Tween 80+0.02% SDS. Compound 2 was dosed IV at 1 mg/kg as a formulation of 0.2 mg/mL in 5% ethanol +95% saline and was dosed PO at 30 mg/kg as a formulation of 3 mg/mL in 0.25% MC+5% Tween 80+0.02% SDS.

[3] = test system: Chemotherapy-induced Intestinal Injury Model; test: Diarrhea in mouse chemotherapy-induced (5FU) intestinal injury model; type: in vivo, BALB/c mice; details: 5FU 400 mg/kg IP; for Diarrhea Score Day 5 / Diarrhea Score Day 6: score 0-3
Method: Compounds were formulated in vehicle (0.25% methyl cellulose, 5% Tween 80, 0.02% sodium dodecyl sulfate (SDS) in Hanks' Buffered Salt Solution with Ca' and Mg'). On day 1, either saline or a 400 mg/kg dose of 5-fluorouracil (5FU) in saline was administered by intraperitoneal injection to BALB/c mice. Starting on day 2, vehicle or compound was administered twice a day by oral gavage. From days 5 to 6 post-5FU, the animals were scored for diarrhea severity once a day. The diarrhea was scored 0-3 as follows: 0—normal consistency (black and solid), 1—soft (black and a bit lighter/yellow), 2—loosely shaped stool (yellowish and somewhat watery), 3—extreme diarrhea (very watery).

[4] = in vitro; details: human
Method: (§1) Caco-2 cells purchased from ATCC were seeded onto […] (PET) in 96-well BD Insert plates at 1×10^5 cells/cm^2, and refreshed medium every 4-5 days until to the 21st to 28th day for confluent cell monolayer formation. The transport buffer in the study was HBSS with 10 mM HEPES at pH 7.40±0.05. Test compounds were tested at 2 μM bi-directionally in duplicate. Digoxin was tested at 10 μM bi-directionally in duplicate, while nadolol and metoprolol were tested at 2 μM in A to B direction in duplicate. Final DMSO concentration was adjusted to less than 1%.
(§2) The plate was incubated for 2 hours in CO2 incubator at 37±1° C., with 5% CO2 at saturated humidity without shaking. All samples were mixed with acetonitrile containing internal standard and were centrifuged at 4000 rpm for 10 min. Subsequently, 100 μL supernatant solution was diluted with 100 μL distilled water for LC/MS/MS analysis. Concentrations of test and control compounds in starting solution, donor solution, and receiver solution were quantified by LC/MS/MS, using peak area ratio of analyte/internal standard.

[5] = test system: Caco-2 cells; test: in vitro
Method: as §1, §2

[6] = test system: blood glucose levels; test: Intraperitoneal (IP) glucose tolerance test in mice; type: in vivo
Excerpt: Systemic AMPK target engagement in vivo can be assessed by measuring the glucose levels in blood following administration of compounds, whereby AMPK activation in skeletal muscle leads in a decrease in overall blood glucose levels.
Compounds were formulated in vehicle (0.25% methyl cellulose, 5% Tween 80, 0.02% sodium dodecyl sulfate (SDS) in Hanks' Buffered Salt Solution with Ca^2+ and Mg^2). Immediately prior to compound dosing, the tip of the tail was removed with scissors and a drop of blood was collected onto a glucometer strip (Bayer Contour Next) for a −1 hour blood glucose measure. The mice were then immediately administered vehicle or compound at 10 mL/kg PO. Approximately one hour later, mice were tail bled for a 0 min blood glucose reading, and then immediately after were administered D(+) glucose (2 g/kg, made up in saline) at 5 mL/kg IP. Tail bleeds were then performed on all mice at 20 min, 40 min, 60 min, and 90 min post D(+) glucose administration for blood glucose measures. Area under the curves (AUCs) for blood glucose measures were then calculated for each treatment from 0-90 mins.

[7] = Caco-2, pH 7.4, Mean Recovery A to B

Sequence of Recombinant AMPK α1/β1/γ1 complex (Q13131 whole entry): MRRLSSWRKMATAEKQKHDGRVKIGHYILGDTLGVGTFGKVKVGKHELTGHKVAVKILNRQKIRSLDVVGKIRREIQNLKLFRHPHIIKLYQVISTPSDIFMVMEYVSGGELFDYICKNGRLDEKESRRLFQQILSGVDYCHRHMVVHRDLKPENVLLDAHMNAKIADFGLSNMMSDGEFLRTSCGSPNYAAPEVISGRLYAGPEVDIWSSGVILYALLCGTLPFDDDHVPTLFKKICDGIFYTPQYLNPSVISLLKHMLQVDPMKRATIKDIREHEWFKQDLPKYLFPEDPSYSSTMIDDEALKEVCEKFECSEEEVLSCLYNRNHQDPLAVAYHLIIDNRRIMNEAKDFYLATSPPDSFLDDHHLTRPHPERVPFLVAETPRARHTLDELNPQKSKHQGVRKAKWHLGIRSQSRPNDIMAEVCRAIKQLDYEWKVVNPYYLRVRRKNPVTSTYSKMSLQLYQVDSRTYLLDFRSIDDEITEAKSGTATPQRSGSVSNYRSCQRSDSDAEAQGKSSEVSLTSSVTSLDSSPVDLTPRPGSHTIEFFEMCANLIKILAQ
Sequence of Recombinant AMPK α1/β1/γ1 complex (Q9Y478 whole entry): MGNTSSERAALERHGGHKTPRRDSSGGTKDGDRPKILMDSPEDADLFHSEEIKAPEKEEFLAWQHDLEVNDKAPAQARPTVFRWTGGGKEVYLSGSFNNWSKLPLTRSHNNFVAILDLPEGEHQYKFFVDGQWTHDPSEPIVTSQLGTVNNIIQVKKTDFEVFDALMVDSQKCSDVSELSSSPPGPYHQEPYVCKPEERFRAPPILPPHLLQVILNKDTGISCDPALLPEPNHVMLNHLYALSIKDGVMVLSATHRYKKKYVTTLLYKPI
Sequence of Recombinant AMPK α1/β1/γ1 complex (P54619 whole entry partner): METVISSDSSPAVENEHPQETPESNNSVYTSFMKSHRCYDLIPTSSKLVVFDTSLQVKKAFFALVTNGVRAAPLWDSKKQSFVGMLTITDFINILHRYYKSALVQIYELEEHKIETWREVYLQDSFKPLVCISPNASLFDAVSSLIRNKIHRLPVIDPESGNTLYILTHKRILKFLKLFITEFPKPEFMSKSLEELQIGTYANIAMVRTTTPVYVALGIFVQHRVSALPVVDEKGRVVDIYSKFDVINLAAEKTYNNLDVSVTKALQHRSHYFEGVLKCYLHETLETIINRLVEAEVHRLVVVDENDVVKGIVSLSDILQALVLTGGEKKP

SMILES | EC50 [1] [nM] | bioavailability [2] [%] | Vd [2] [L/kg] | Diarrhea Score Day 5, % Change vs. Vehicle ([3]; 30 mpk BID oral) [%] | Diarrhea Score Day 6, % Change vs. Vehicle ([3]; 30 mpk BID oral) [%] | Diarrhea Score Day 5 ([3]; 30 mpk BID oral) | Diarrhea Score Day 6 ([3]; 30 mpk BID oral) | further results
CN1CCN(Cc2ccc(-c3ccc(-c4cc5nc(O[C@@H]6CO[C@H]7[C@@H]6OC[C@H]7O)[nH]c5cc4Cl)cc3)cc2)CC1 [Compound 57, (3R,3aR,6R,6aR)-6-((6-chloro-5-(4′-((4-methylpiperazin-1-yl)methyl)-[1,1′-biphenyl]-4-yl)-1H-benzo[d]imidazol-2-yl)oxy)hexahydrofuro[3,2-b]furan-3-ol] | 0.89 | < 10 | < 5 |  |  |  |  | 
OCC(CO)NCc1ccc(-c2ccc(-c3cc4nc(O[C@@H]5CO[C@H]6[C@@H]5OC[C@H]6O)[nH]c4cc3Cl)cc2)cc1 [Compound 40, 2-(((4′-(6-chloro-2-(((3R,3aR,6R,6aR)-6-hydroxyhexahydrofuro[3,2-b]furan-3-yl)oxy)-1H-benzo[d]imidazol-5-yl)-[1,1′-biphenyl]-4-yl)methyl)amino)propane-1,3-diol] |  | < 10 | < 5 | −66 | −59 | 0.38 | 0.75 | 
OCC1(CO)CCN(Cc2ccc(-c3ccc(-c4cc5nc(O[C@@H]6CO[C@H]7[C@@H]6OC[C@H]7O)[nH]c5cc4Cl)cc3)cc2)CC1 [Compound 60, (1-((4′-(6-chloro-2-(((3R,3aR,6R,6aR)-6-hydroxyhexahydrofuro[3,2-b]furan-3-yl)oxy)-1H-benzo[d]imidazol-5-yl)-[1,1′-biphenyl]-4-yl)methyl)piperidine-4,4-diyl)dimethanol] | 0.85 | < 15 | < 5 | −71 | −66 | 0.38 | 0.38 | 
OCCN1CCN(Cc2ccc(-c3ccc(-c4cc5nc(O[C@@H]6CO[C@H]7[C@@H]6OC[C@H]7O)[nH]c5cc4Cl)cc3)cc2)CC1 [Compound 56] | 0.93 |  |  | −71 | −77 | 0.38 | 0.25 | 
OCC1CCN(Cc2ccc(-c3ccc(-c4cc5nc(O[C@@H]6CO[C@H]7[C@@H]6OC[C@H]7O)[nH]c5cc4Cl)cc3)cc2)CC1 [Compound 55, (3R,3aR,6R,6aR)-6-((6-chloro-5-(4′((4-(hydroxymethyl)piperidin-1-yl)methyl)-[1,1′-biphenyl]-4-yl)-1H-benzo[d]imidazol-2-yl)oxy)hexahydrofuro[3,2-b]furan-3-ol] | 2.22 | < 15 | < 5 |  |  |  |  | 
COCCc1ccc(OCC(O)CNC(C)C)cc1 (stereo not drawn) [Metoprolol, metoprolol, reference compound] |  |  |  |  |  |  |  | Papp A→B at 2 h, 2 μM ([4]; Caco-2, pH 7.4): 16.4 ×10⁻⁶ cm/s; recovery at 2 h, 2 μM [4, 7]: 90%
OCCOCCNCc1ccc(-c2ccc(-c3cc4nc(O[C@@H]5CO[C@H]6[C@@H]5OC[C@H]6O)[nH]c4cc3Cl)cc2)cc1 [Compound 58, (3R,3aR,6R,6aR)-6-((6-chloro-5-(4′-(((2-(2-hydroxyethoxy)ethyl)amino)methyl)-[1,1′-biphenyl]-4-yl)-1H-benzo[d]imidazol-2-yl)oxy)hexahydrofuro[3,2-b]furan-3-ol] | 0.93 |  |  | −81 | −66 | 0.25 | 0.38 | 
C[C@H]1O[C@@H](O[C@H]2[C@@H](O)C[C@H](O[C@H]3[C@@H](O)C[C@H](O[C@H]4CC[C@@]5(C)[C@H](CC[C@@H]6[C@@H]5C[C@@H](O)[C@]5(C)[C@@H](C7=CC(=O)OC7)CC[C@]65O)C4)O[C@@H]3C)O[C@@H]2C)C[C@H](O)[C@@H]1O [Digoxin, reference compound] |  |  |  |  |  |  |  | Papp A→B at 2 h, 2 μM ([4]; Caco-2, pH 7.4): < 0.03 ×10⁻⁶ cm/s; Papp B→A at 2 h, 2 μM ([4]; Caco-2, pH 7.4): 12.7 ×10⁻⁶ cm/s; efflux ratio at 2 h, 2 μM ([4]; Caco-2, pH 7.4, Efflux Ratio): > 438; recovery at 2 h, 2 μM [4, 7]: < 90.8%; recovery at 2 h, 2 μM ([4]; Caco-2, pH 7.4, Mean Recovery B to A): 92.2%
CC(C)(C)NCC(O)COc1cccc2c1CC(O)C(O)C2 (stereo not drawn) [Nadolol, nadolol, reference compound] |  |  |  |  |  |  |  | Mean Recovery A to B ([5]; Caco-2): 97.74%; Mean Papp A to B ([5]; Caco-2, pH 7.4): 0.08 10^−6 cm/s
O=C(NCC[N+]12CCN(CC1)CC2)c1ccc(-c2ccc(-c3cc4nc(O[C@@H]5CO[C@H]6[C@@H]5OC[C@H]6O)[nH]c4cc3Cl)cc2)cc1 [Compound 32, 1-(2-(4′-(6-chloro-2-(((3R,3aR,6R,6aR)-6-hydroxyhexahydrofuro[3,2-b]furan-3-yl)oxy)-1H-benzo [d]imidazol-5-yl)-[1,1′-biphenyl]-4-carboxamido)ethyl)-1,4-diazabicyclo[2.2.2]octan-1-ium formate] |  | < 1 | < 1 |  |  |  |  | Diarrhea Score Day 5, % Change vs. Vehicle ([3]; 20 mpk BID oral): −43%; Diarrhea Score Day 6, % Change vs. Vehicle ([3]; 20 mpk BID oral): −52%; Diarrhea Score Day 5 ([3]; 20 mpk BID oral): 0.63; Diarrhea Score Day 6 ([3]; 20 mpk BID oral): 0.88
O=C(NCC(CS(=O)(=O)O)c1ccc(Cl)cc1)c1ccc(-c2ccc(-c3nc4nc(O[C@@H]5CO[C@H]6[C@@H]5OC[C@H]6O)[nH]c4cc3Cl)cc2)cc1 (stereo partly drawn) [Compound 7, 3-(4′-(6-chloro-2-(((3R,3aR,6R,6aR)-6-hydroxyhexahydrofuro[3,2-b]furan-3-yl)oxy)-1H-imidazo[4,5-b]pyridin-5-yl)-[1,1′-biphenyl]-4-carboxamido)-2-(4-chlorophenyl)propane-1-sulfonic acid] | 1.22 |  |  |  |  |  |  | 
O=C(NCCCS(=O)(=O)O)c1ccc(-c2ccc(-c3nc4nc(O[C@@H]5CO[C@H]6[C@@H]5OC[C@H]6O)[nH]c4cc3Cl)cc2)cc1 [Compound 6, 3-(4′-(6-chloro-2-(((3R,3aR,6R,6aR)-6-hydroxyhexahydrofuro[3,2-b]furan-3-yl)oxy)-1H-imidazo[4,5-b]pyridin-5-yl)-[1,1′-biphenyl]-4-carboxamido)propane-1-sulfonic acid] | 0.62 |  |  |  |  |  |  | 
O=P(O)(O)c1ccc(-c2ccc(-c3nc4nc(O[C@@H]5CO[C@H]6[C@@H]5OC[C@H]6O)[nH]c4cc3Cl)cc2)cc1 [Compound 2, (4′-(6-chloro-2-(((3R,3aR,6R,6aR)-6-hydroxyhexahydrofuro[3,2-b]furan-3-yl)oxy)-1H-imidazo[4,5-b]pyridin-5-yl)-[1,1′-biphenyl]-4-yl)phosphonic acid] | 1.4 | < 1 | < 5 |  |  |  |  | % Change in Average Total AUC (0-90 min) vs. Vehicle ([6]; 30 mpk PO, blood glucose, glucose 2 g/kg IP): +6.6%; change in blood glucose AUC vs. vehicle / systemic AMPK activation (in words) ([6]; 30 mpk for all compounds, up to 100 mpk for Compound 4): do not lead to activation of AMPK in skeletal muscle
